#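 Growth conditions: 96-well plates. Treatment: test compound, 48 hours, 5 concentrations. Analysis: linear interpolation between bracketing concentrations; unreached endpoints set to highest concentration. The concentration for 50% growth inhibition is given as GI50. TGI: total growth inhibition.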
# Legend:
# Assay in all cases: NCI tumour cell line growth inhibition, 48 h
# CAKI-1 renal = test system: CAKI-1 renal
# HCT-15 colon = test system: HCT-15 colon
# HL-60(TB) leukemia = test system: HL-60(TB) leukemia
# HOP-62 NSCLC = test system: HOP-62 NSCLC
# HS 578T breast = test system: HS 578T breast
# NCI-H226 lung = test system: NCI-H226 lung
# NCI/ADR-RES ovarian = test system: NCI/ADR-RES ovarian
# RXF 393 renal = test system: RXF 393 renal
# SK-OV-3 ovarian = test system: SK-OV-3 ovarian
# TK-10 renal = test system: TK-10 renal
smiles,measurement,setting,value
NS(=O)(=O)c1ccc(NNC(=O)c2cccc3c(=O)c4ccccc4[nH]c23)cc1,TGI,CAKI-1 renal,> 100 µM
same,TGI,HCT-15 colon,> 100 µM
same,TGI,HL-60(TB) leukemia,> 100 µM
same,TGI,HOP-62 NSCLC,> 100 µM
same,TGI,HS 578T breast,> 100 µM
same,TGI,NCI-H226 lung,> 100 µM
same,TGI,NCI/ADR-RES ovarian,> 100 µM
same,TGI,RXF 393 renal,> 100 µM
same,TGI,SK-OV-3 ovarian,> 100 µM
same,TGI,TK-10 renal,> 100 µM
C1CNCCN2CCCNCCN(C1)CC2,TGI,CAKI-1 renal,> 100 µM
same,TGI,HCT-15 colon,> 100 µM
same,TGI,HOP-62 NSCLC,> 100 µM
same,TGI,HS 578T breast,> 100 µM
same,TGI,NCI-H226 lung,> 100 µM
same,TGI,NCI/ADR-RES ovarian,> 100 µM
same,TGI,RXF 393 renal,> 100 µM
same,TGI,SK-OV-3 ovarian,> 100 µM
same,TGI,TK-10 renal,> 100 µM
Clc1cc2nc(C3CCCO3)[nH]c2cc1Cl (stereo not given),TGI,HCT-15 colon,> 100 µM
same,TGI,HL-60(TB) leukemia,> 100 µM
same,TGI,HOP-62 NSCLC,> 100 µM
same,TGI,HS 578T breast,> 100 µM
same,TGI,NCI-H226 lung,> 100 µM
same,TGI,NCI/ADR-RES ovarian,> 100 µM
same,TGI,RXF 393 renal,> 100 µM
same,TGI,SK-OV-3 ovarian,> 100 µM
same,TGI,TK-10 renal,> 100 µM
O=C1/C(=C/c2ccc(O)cc2)NC(=S)N1CN1CCCCC1,TGI,HCT-15 colon,> 100 µM
same,TGI,HL-60(TB) leukemia,> 100 µM
same,TGI,HOP-62 NSCLC,> 100 µM
same,TGI,HS 578T breast,> 100 µM
same,TGI,NCI-H226 lung,> 100 µM
same,TGI,NCI/ADR-RES ovarian,> 100 µM
same,TGI,SK-OV-3 ovarian,> 100 µM
same,TGI,TK-10 renal,> 100 µM
CC1=C(C)C(=O)OC(C(C)(O)C2(O)CCC3(O)C4CC(Cl)C5(O)C(O)C=CC(=O)C5(C)C4CCC32C)C1 (stereo not given),TGI,CAKI-1 renal,> 100 µM
same,TGI,HCT-15 colon,> 100 µM
same,TGI,HL-60(TB) leukemia,9.04 µM
same,TGI,HOP-62 NSCLC,> 100 µM
same,TGI,HS 578T breast,> 100 µM
same,TGI,NCI-H226 lung,> 100 µM
same,TGI,RXF 393 renal,56.1 µM
same,TGI,SK-OV-3 ovarian,> 100 µM
same,TGI,TK-10 renal,> 100 µM
c1ccc(Cc2cccc3cc(-c4ccc(-c5ccccc5)cc4)[nH]c23)cc1,TGI,CAKI-1 renal,> 100 µM
same,TGI,HCT-15 colon,> 100 µM
same,TGI,HL-60(TB) leukemia,> 100 µM
same,TGI,HOP-62 NSCLC,> 100 µM
same,TGI,HS 578T breast,84 µM
same,TGI,NCI-H226 lung,> 100 µM
same,TGI,NCI/ADR-RES ovarian,> 100 µM
same,TGI,SK-OV-3 ovarian,> 100 µM
same,TGI,TK-10 renal,> 100 µM
CN(Cc1cnc2nc(N)nc(N)c2n1)c1ccc(C(=O)NC(CCS(=O)(=O)O)C(=O)O)cc1 (stereo not given),TGI,CAKI-1 renal,> 100 µM
same,TGI,HCT-15 colon,> 100 µM
same,TGI,HL-60(TB) leukemia,1.62 µM
same,TGI,HOP-62 NSCLC,> 100 µM
same,TGI,HS 578T breast,> 100 µM
same,TGI,NCI-H226 lung,> 100 µM
same,TGI,NCI/ADR-RES ovarian,> 100 µM
same,TGI,SK-OV-3 ovarian,> 100 µM
same,TGI,TK-10 renal,> 100 µM
CN(c1c(Cl)cccc1Cl)S(=O)(=O)c1ccccc1[N+](=O)[O-],TGI,CAKI-1 renal,> 100 µM
same,TGI,HCT-15 colon,> 100 µM
same,TGI,HOP-62 NSCLC,> 100 µM
same,TGI,HS 578T breast,> 100 µM
same,TGI,NCI-H226 lung,> 100 µM
same,TGI,NCI/ADR-RES ovarian,> 100 µM
same,TGI,RXF 393 renal,> 100 µM
same,TGI,SK-OV-3 ovarian,> 100 µM
same,TGI,TK-10 renal,> 100 µM
COc1ccc(-c2cc(-c3ccccc3)n(C3OC(COC(C)=O)C(OC(C)=O)C(OC(C)=O)C3OC(C)=O)c(=S)c2C#N)cc1 (stereo not given),TGI,CAKI-1 renal,19 µM
same,TGI,HCT-15 colon,> 100 µM
same,TGI,HL-60(TB) leukemia,13.4 µM
same,TGI,HOP-62 NSCLC,14.4 µM
same,TGI,HS 578T breast,23.5 µM
same,TGI,NCI-H226 lung,23.1 µM
same,TGI,NCI/ADR-RES ovarian,50.5 µM
same,TGI,RXF 393 renal,23.2 µM
same,TGI,SK-OV-3 ovarian,32.9 µM
same,TGI,TK-10 renal,40.7 µM
Cc1nn2c(N)cc(=O)nc2nc1/C=C/c1ccc(N(C)C)cc1,TGI,CAKI-1 renal,> 100 µM
same,TGI,HCT-15 colon,> 27.9 µM
same,TGI,HL-60(TB) leukemia,0.0117 µM
same,TGI,HOP-62 NSCLC,> 100 µM
same,TGI,HS 578T breast,> 100 µM
same,TGI,NCI-H226 lung,> 100 µM
same,TGI,NCI/ADR-RES ovarian,> 100 µM
same,TGI,RXF 393 renal,> 100 µM
same,TGI,SK-OV-3 ovarian,> 100 µM
same,TGI,TK-10 renal,> 100 µM
NC(CCCCCP(=O)(O)O)C(=O)O (stereo not given),TGI,CAKI-1 renal,> 100 µM
same,TGI,HCT-15 colon,> 100 µM
same,TGI,HL-60(TB) leukemia,> 100 µM
same,TGI,HS 578T breast,> 100 µM
same,TGI,NCI/ADR-RES ovarian,> 100 µM
same,TGI,RXF 393 renal,> 100 µM
same,TGI,SK-OV-3 ovarian,> 100 µM
same,TGI,TK-10 renal,> 100 µM
CN(C)c1cccc(-c2cc(=O)c3ccccc3[nH]2)c1,TGI,HCT-15 colon,> 100 µM
same,TGI,HL-60(TB) leukemia,74.6 µM
same,TGI,HOP-62 NSCLC,> 100 µM
same,GI50,NCI-H226 lung,29.4 µM
same,TGI,NCI-H226 lung,66.9 µM
same,GI50,RXF 393 renal,35.4 µM
same,TGI,RXF 393 renal,> 100 µM
same,TGI,SK-OV-3 ovarian,> 100 µM
same,TGI,TK-10 renal,> 100 µM
CN(C)c1nc(N(C)C)nc(N(C)CN(C)c2ccccc2)n1,TGI,HCT-15 colon,> 100 µM
same,TGI,HL-60(TB) leukemia,> 100 µM
same,TGI,NCI-H226 lung,> 100 µM
same,TGI,RXF 393 renal,> 100 µM
same,TGI,SK-OV-3 ovarian,> 100 µM
same,TGI,TK-10 renal,> 100 µM
ON=C1CCCCC(=NO)CCCC1,TGI,CAKI-1 renal,> 100 µM
same,TGI,HCT-15 colon,> 100 µM
same,TGI,HS 578T breast,> 100 µM
same,TGI,NCI-H226 lung,> 100 µM
same,TGI,NCI/ADR-RES ovarian,> 100 µM
same,TGI,SK-OV-3 ovarian,> 100 µM
same,TGI,TK-10 renal,> 100 µM
C=C1C(=O)OC2/C=C(\C)CC/C=C(/C)CC(OC(=O)/C(=C/CO)CO)C12 (stereo not given),TGI,CAKI-1 renal,34 µM
same,TGI,HCT-15 colon,37.7 µM
same,TGI,HL-60(TB) leukemia,20.7 µM
same,TGI,HOP-62 NSCLC,> 100 µM
same,TGI,HS 578T breast,> 100 µM
same,TGI,NCI/ADR-RES ovarian,> 100 µM
same,TGI,RXF 393 renal,23.7 µM
same,TGI,SK-OV-3 ovarian,> 100 µM
same,TGI,TK-10 renal,34.5 µM
O=C(ON=c1c2ccccc2ccc2ccccc12)c1cc([N+](=O)[O-])cc([N+](=O)[O-])c1,TGI,HCT-15 colon,> 100 µM
same,TGI,HL-60(TB) leukemia,> 100 µM
same,TGI,HOP-62 NSCLC,> 100 µM
same,TGI,HS 578T breast,> 100 µM
same,TGI,NCI-H226 lung,> 100 µM
same,TGI,NCI/ADR-RES ovarian,> 100 µM
same,TGI,RXF 393 renal,> 100 µM
same,TGI,SK-OV-3 ovarian,> 100 µM
same,TGI,TK-10 renal,> 100 µM
O=C(NC(=O)c1cn(CCN2CCNCC2)c(=O)[nH]c1=O)OCc1ccccc1,TGI,CAKI-1 renal,> 100 µM
same,TGI,HCT-15 colon,> 100 µM
same,TGI,HL-60(TB) leukemia,> 100 µM
same,TGI,HOP-62 NSCLC,> 100 µM
same,TGI,NCI-H226 lung,> 100 µM
same,TGI,SK-OV-3 ovarian,> 100 µM
CN1CCc2c(sc3nc(Nc4ccccc4)n(N)c(=O)c23)C1,TGI,CAKI-1 renal,> 100 µM
same,TGI,HCT-15 colon,> 100 µM
same,TGI,HL-60(TB) leukemia,> 100 µM
same,TGI,HOP-62 NSCLC,> 100 µM
same,TGI,HS 578T breast,> 100 µM
same,TGI,NCI-H226 lung,> 100 µM
same,TGI,NCI/ADR-RES ovarian,> 100 µM
same,TGI,RXF 393 renal,> 100 µM
same,TGI,TK-10 renal,> 100 µM
CCN(CC)CCN1C(=O)c2cccc3c(-c4ccc5c(c4)ncn5C4CCCCC4)ccc(c23)C1=O,GI50,CAKI-1 renal,1.71 µM
same,TGI,CAKI-1 renal,5.45 µM
same,GI50,HL-60(TB) leukemia,1.95 µM
same,TGI,HL-60(TB) leukemia,4.61 µM
same,GI50,HOP-62 NSCLC,1.46 µM
same,TGI,HOP-62 NSCLC,3.05 µM
same,GI50,NCI/ADR-RES ovarian,1.45 µM
same,TGI,NCI/ADR-RES ovarian,4.26 µM
same,GI50,SK-OV-3 ovarian,1.97 µM
same,TGI,SK-OV-3 ovarian,4.18 µM
same,GI50,TK-10 renal,1.76 µM
same,TGI,TK-10 renal,4.39 µM
O=C1C=C2S[C@H]3C[C@]2(C=C1Br)c1c(c(O)c2c4c1=NCCC=4C=N2)N3,TGI,CAKI-1 renal,3.07 µM
same,TGI,HCT-15 colon,1.99 µM
same,TGI,HS 578T breast,3.48 µM
same,TGI,NCI-H226 lung,4.86 µM
same,TGI,NCI/ADR-RES ovarian,0.457 µM
same,TGI,RXF 393 renal,0.947 µM
same,TGI,SK-OV-3 ovarian,17.1 µM
same,TGI,TK-10 renal,2.71 µM
Nn1c(CNc2ccc(-c3nnc(Nc4ccc(Cl)cc4)n3N)cc2)nnc1Nc1ccc(Cl)cc1,TGI,CAKI-1 renal,> 100 µM
same,TGI,HCT-15 colon,> 100 µM
same,TGI,HOP-62 NSCLC,93 µM
same,TGI,NCI-H226 lung,> 100 µM
same,TGI,NCI/ADR-RES ovarian,> 100 µM
same,TGI,RXF 393 renal,> 100 µM
same,TGI,SK-OV-3 ovarian,> 100 µM
same,TGI,TK-10 renal,> 100 µM
CCCCCCc1nn2c(-c3ccc(C)cc3)nnc2s1,TGI,CAKI-1 renal,> 100 µM
same,TGI,HCT-15 colon,> 100 µM
same,TGI,HOP-62 NSCLC,> 100 µM
same,TGI,HS 578T breast,> 100 µM
same,TGI,NCI/ADR-RES ovarian,> 100 µM
same,TGI,RXF 393 renal,> 100 µM
same,TGI,SK-OV-3 ovarian,> 100 µM
same,TGI,TK-10 renal,> 100 µM
CCOC(=O)C(Cc1ccc2c(c1)CCC2)(Cc1ccc2c(c1)CCC2)C(=O)OCC,TGI,CAKI-1 renal,> 100 µM
same,TGI,HCT-15 colon,> 100 µM
same,TGI,HL-60(TB) leukemia,> 100 µM
same,TGI,HOP-62 NSCLC,> 100 µM
same,TGI,HS 578T breast,> 100 µM
same,TGI,NCI/ADR-RES ovarian,> 100 µM
same,TGI,RXF 393 renal,89.9 µM
same,TGI,SK-OV-3 ovarian,> 100 µM
same,TGI,TK-10 renal,> 100 µM

# From PubChem BioAssay (NCI)
